Several values for one entry are separate records, joined by “and”; a condition that tells them apart may be missing. Identical values can stand only once.
Experiment: xn = mol fraction of the nth substance listed

Cn1cc[n+](CCC[n+]2ccn(C)c2)c1.[Br-].[Br-] + O=C[C@H](O)[C@@H](O)[C@H](O)[C@H](O)CO + O
viscosity [mPa·s], 101 kPa
Conditions | 293.15 K | 298.15 K | 303.15 K | 308.15 K | 313.15 K
x1 = 0.0005066, x2 = 0.001798 | 1.061 | 0.945 | 0.846 | 0.764 | 0.696
x1 = 0.0005575, x2 = 0.001798 | 1.059 | 0.942 | 0.844 | 0.765 | 0.695
x1 = 0.0005912, x2 = 0 | 1.016 | 0.905 | 0.812 | 0.734 | 0.669
x1 = 0.0006805, x2 = 0 | 1.016 | 0.904 | 0.811 | 0.734 | 0.67
x1 = 0.0007464, x2 = 0.001797 | 1.065 | 0.947 | 0.848 | 0.768 | 0.698
x1 = 0.0007474, x2 = 0 | 1.019 | 0.908 | 0.816 | 0.739 | 0.673
x1 = 0.0009122, x2 = 0 | 1.025 | 0.913 | 0.82 | 0.74 | 0.675
x1 = 0.0009147, x2 = 0.001797 | 1.073 | 0.954 | 0.856 | 0.773 | 0.704
x1 = 0.001085, x2 = 0.001797 | 1.079 | 0.96 | 0.86 | 0.779 | 0.707
x1 = 0.001235, x2 = 0.001797 | 1.086 | 0.966 | 0.867 | 0.78 | 0.71
x1 = 0.00129, x2 = 0 | 1.043 | 0.927 | 0.832 | 0.754 | 0.686
x1 = 0.001332, x2 = 0.001796 | 1.083 | 0.963 | 0.863 | 0.782 | 0.712
x1 = 0.00144, x2 = 0 | 1.05 | 0.935 | 0.84 | 0.758 | 0.693
x1 = 0.001476, x2 = 0.001796 | 1.087 | 0.966 | 0.866 | 0.784 | 0.713
x1 = 0.001591, x2 = 0.001796 | 1.093 | 0.97 | 0.87 | 0.786 | 0.715
x1 = 0.001838, x2 = 0 | 1.066 | 0.948 | 0.85 | 0.768 | 0.7
x1 = 0.002094, x2 = 0 | 1.071 | 0.955 | 0.855 | 0.77 | 0.702
x1 = 0.002204, x2 = 0 | 1.071 | 0.955 | 0.857 | 0.774 | 0.705
x1 = 0.002491, x2 = 0 | 1.084 | 0.962 | 0.859 | 0.775 | 0.708

CCCC[P+](CCCC)(CCCC)CCCC.CS(=O)(=O)[O-] + O=S1(=O)CCCC1
101.33 kPa, x1 = 0.5
Conditions | viscosity [mPa·s]
303.15 K | 136
313.15 K | 84
323.15 K | 50
333.15 K | 34.6
343.25 K | 24.6
353.25 K | 18.7

CCCC[n+]1ccn(C)c1.N#C[N-]C#N + O=S(=O)([N-]S(=O)(=O)C(F)(F)F)C(F)(F)F.[Li+]
electrical conductivity [S/m], 101 kPa
Conditions | x1 = 0.8953 | x1 = 0.9103 | x1 = 0.942 | x1 = 0.9606 | x1 = 0.9799 | x1 = 1
288.15 K | – | 0.381 | 0.469 | 0.538 | 0.595 | 0.596
298.15 K | 0.519 | 0.613 | 0.743 | 0.848 | 0.919 | 0.925
333.15 K | 1.67 | 1.88 | 2.17 | 2.46 | 2.56 | 2.77

CCCC[n+]1ccn(C)c1.N#C[N-]C#N + O=S(=O)([O-])C(F)(F)F.[Li+]
101 kPa, x1 = 1
Conditions | electrical conductivity [S/m]
288.15 K | 0.596
298.15 K | 0.925
333.15 K | 2.77

CCCC[n+]1ccn(C)c1.N#C[N-]C#N + O=[N+]([O-])[O-].[Li+]
electrical conductivity [S/m], 101 kPa
Conditions | x1 = 0.7634 | x1 = 0.8104 | x1 = 0.859 | x1 = 0.9137 | x1 = 0.9799 | x1 = 1
288.15 K | – | 0.155 | 0.246 | 0.377 | 0.599 | 0.596
298.15 K | 0.193 | 0.272 | 0.417 | 0.612 | 0.924 | 0.925
333.15 K | 0.902 | 1.17 | 1.47 | 1.95 | 2.6 | 2.77

CCCCCCCCCCCC[P+](CC)(CC)CC.N#Cc1ccc[n-]1 + OCC(O)CO
100 kPa
Conditions | electrical conductivity, 293.15 K [S/m] | electrical conductivity, 303.15 K [S/m] | electrical conductivity, 313.15 K [S/m] | viscosity, 293.15 K [mPa·s] | viscosity, 298.15 K [mPa·s] | viscosity, 303.15 K [mPa·s] | viscosity, 313.15 K [mPa·s]
x1 = 0.001 | 0.0008 | 0.0015 | 0.0028 | – | – | – | –
x1 = 0.003 | 0.0025 | 0.0035 | 0.0061 | 1352 | 860 | 540 | 214
x1 = 0.005 | 0.0037 | 0.0051 | 0.0091 | – | – | – | –
x1 = 0.007 | 0.0052 | 0.0065 | 0.0116 | – | – | – | –
x1 = 0.01 | 0.0064 | 0.0076 | 0.0137 | 1415 | 910 | 573 | 230
x1 = 0.013 | 0.0076 | 0.0105 | 0.0192 | – | – | – | –
x1 = 0.016 | 0.0081 | 0.0125 | 0.0233 | – | – | – | –
x1 = 0.021 | 0.0086 | 0.0154 | 0.0287 | – | – | – | –
x1 = 0.026 | 0.0096 | 0.0166 | 0.0312 | 1652 | 1024 | 620 | 254
x1 = 0.032 | 0.0102 | 0.0186 | 0.0342 | – | – | – | –
x1 = 0.041 | 0.0111 | 0.0201 | 0.0368 | 2113 | 1316 | 790 | 321
x1 = 0.049 | 0.0122 | 0.0233 | 0.0429 | – | – | – | –
x1 = 0.056 | 0.0129 | 0.0252 | 0.0463 | 2377 | 1481 | 910 | 364
x1 = 0.094 | 0.014 | 0.0256 | 0.0475 | – | – | – | –
x1 = 0.139 | 0.012 | 0.0279 | 0.0522 | 2442 | 1568 | 1018 | 442
x1 = 0.196 | – | – | – | 2342 | 1501 | 960 | 423
x1 = 0.292 | 0.0092 | 0.0261 | 0.0495 | 1719 | 1114 | 730 | 336
x1 = 0.343 | 0.0092 | 0.0203 | 0.0398 | 1481 | 970 | 658 | 307
x1 = 0.426 | – | – | – | 1086 | 710 | 473 | 230
x1 = 0.481 | 0.0109 | 0.0206 | 0.0404 | – | – | – | –
x1 = 0.542 | – | – | – | 940 | 638 | 443 | 231
x1 = 0.677 | 0.0131 | 0.0239 | 0.0453 | 860 | 600 | 425 | 214
x1 = 0.815 | 0.0183 | 0.0357 | 0.0635 | 623 | 441 | 321 | 164
x1 = 1 | 0.0267 | 0.0448 | 0.0786 | 422 | 296 | 212 | 117

CCCC[n+]1ccn(C)c1.N#C[N-]C#N + OCC(O)CO + O
viscosity [mPa·s], 101 kPa
Conditions | x2 = 0.00317, x3 = 0.9588 | x2 = 0.005245, x3 = 0.8687 | x2 = 0.006424, x3 = 0.955 | x2 = 0.009764, x3 = 0.9511 | x2 = 0.01072, x3 = 0.8605 | x2 = 0.0132, x3 = 0.9472 | x2 = 0.01645, x3 = 0.8519 | x2 = 0.02243, x3 = 0.8428
313.15 K | 1.38 | 1.68 | 1.46 | 1.53 | 1.72 | 1.59 | 1.78 | 1.81
333.15 K | 1.25 | 1.33 | 1.29 | 1.34 | 1.37 | 1.39 | 1.41 | 1.43
353.15 K | 1.03 | 1.15 | 1.03 | 1.07 | 1.17 | 1.08 | 1.22 | 1.34

CCCCCCCCCCCC[P+](CC)(CC)CC.N#Cc1ccc[n-]1 + OCCN(CCO)CCO
100 kPa
Conditions | electrical conductivity [S/m] | viscosity [mPa·s]
293.15 K, x1 = 0.01 | 0.0023 | –
293.15 K, x1 = 0.035 | 0.0045 | 990
293.15 K, x1 = 0.207 | – | 880
293.15 K, x1 = 0.473 | – | 850
293.15 K, x1 = 0.583 | 0.0111 | –
298.15 K, x1 = 0.051 | – | 652
298.15 K, x1 = 0.207 | – | 585
298.15 K, x1 = 0.809 | – | 506
313.15 K, x1 = 0.051 | – | 189
313.15 K, x1 = 0.207 | – | 186

C[n+]1ccn(CCCCCn2cc[n+](C)c2)c1.O=S(=O)([N-]S(=O)(=O)C(F)(F)F)C(F)(F)F.O=S(=O)([N-]S(=O)(=O)C(F)(F)F)C(F)(F)F + OCCOCCOCCOCCO
viscosity, 101 kPa
Conditions | 293.15 K | 303.15 K | 313.15 K | 323.15 K | 333.15 K
x1 = 0.3283 | 178.4 mPa·s | 93.1 mPa·s | 56.5 mPa·s | 36.2 mPa·s | 22.4 mPa·s
x1 = 0.55 | 448 mPa·s | 233 mPa·s | 128 mPa·s | 81.7 mPa·s | 54.9 mPa·s
x1 = 0.7097 | 627 mPa·s | 316 mPa·s and 318 mPa·s | 177.9 mPa·s and 180.1 mPa·s | 107.7 mPa·s | 67.9 mPa·s
x1 = 1 | 1125 mPa·s | 555 mPa·s | 313 mPa·s | 192.3 mPa·s | 123.2 mPa·s

CC(=O)[O-].CC[n+]1ccn(C)c1 + OC[C@@H](O)[C@@H](O)[C@H](O)[C@@H](O)CO
Conditions | viscosity [mPa·s]
313.15 K, 100 kPa, x2 = 0 | 53.4

CCCC[N+](C)(CCCC)CCCC.[Cl-] + OC[C@H]1O[C@@H](O[C@H]2[C@H](O)[C@@H](O)[C@@H](O)O[C@@H]2CO)[C@H](O)[C@@H](O)[C@H]1O + O
viscosity [mPa·s], 100 kPa
Conditions | 293.15 K | 298.15 K | 303.15 K | 308.15 K | 313.15 K
x2 = 0, x1 = 0.0003603 | 1.01 | 0.904 | 0.809 | 0.726 | 0.661
x2 = 0, x1 = 0.0007023 | 1.024 | 0.914 | 0.815 | 0.735 | 0.671
x2 = 0, x1 = 0.001062 | 1.035 | 0.93 | 0.829 | 0.744 | 0.686
x2 = 0, x1 = 0.001422 | 1.045 | 0.941 | 0.839 | 0.756 | 0.694
